In this test the target is human Nav1.7 (Homo sapiens (Human), UniProt Q15858). Description: Nav 1.7 in vitro PatchXpress (PX) assay. Format: cell-based.

Where two headings read alike, the source gives them in different places.

Sequence of human Nav1.7 (Q15858 whole entry): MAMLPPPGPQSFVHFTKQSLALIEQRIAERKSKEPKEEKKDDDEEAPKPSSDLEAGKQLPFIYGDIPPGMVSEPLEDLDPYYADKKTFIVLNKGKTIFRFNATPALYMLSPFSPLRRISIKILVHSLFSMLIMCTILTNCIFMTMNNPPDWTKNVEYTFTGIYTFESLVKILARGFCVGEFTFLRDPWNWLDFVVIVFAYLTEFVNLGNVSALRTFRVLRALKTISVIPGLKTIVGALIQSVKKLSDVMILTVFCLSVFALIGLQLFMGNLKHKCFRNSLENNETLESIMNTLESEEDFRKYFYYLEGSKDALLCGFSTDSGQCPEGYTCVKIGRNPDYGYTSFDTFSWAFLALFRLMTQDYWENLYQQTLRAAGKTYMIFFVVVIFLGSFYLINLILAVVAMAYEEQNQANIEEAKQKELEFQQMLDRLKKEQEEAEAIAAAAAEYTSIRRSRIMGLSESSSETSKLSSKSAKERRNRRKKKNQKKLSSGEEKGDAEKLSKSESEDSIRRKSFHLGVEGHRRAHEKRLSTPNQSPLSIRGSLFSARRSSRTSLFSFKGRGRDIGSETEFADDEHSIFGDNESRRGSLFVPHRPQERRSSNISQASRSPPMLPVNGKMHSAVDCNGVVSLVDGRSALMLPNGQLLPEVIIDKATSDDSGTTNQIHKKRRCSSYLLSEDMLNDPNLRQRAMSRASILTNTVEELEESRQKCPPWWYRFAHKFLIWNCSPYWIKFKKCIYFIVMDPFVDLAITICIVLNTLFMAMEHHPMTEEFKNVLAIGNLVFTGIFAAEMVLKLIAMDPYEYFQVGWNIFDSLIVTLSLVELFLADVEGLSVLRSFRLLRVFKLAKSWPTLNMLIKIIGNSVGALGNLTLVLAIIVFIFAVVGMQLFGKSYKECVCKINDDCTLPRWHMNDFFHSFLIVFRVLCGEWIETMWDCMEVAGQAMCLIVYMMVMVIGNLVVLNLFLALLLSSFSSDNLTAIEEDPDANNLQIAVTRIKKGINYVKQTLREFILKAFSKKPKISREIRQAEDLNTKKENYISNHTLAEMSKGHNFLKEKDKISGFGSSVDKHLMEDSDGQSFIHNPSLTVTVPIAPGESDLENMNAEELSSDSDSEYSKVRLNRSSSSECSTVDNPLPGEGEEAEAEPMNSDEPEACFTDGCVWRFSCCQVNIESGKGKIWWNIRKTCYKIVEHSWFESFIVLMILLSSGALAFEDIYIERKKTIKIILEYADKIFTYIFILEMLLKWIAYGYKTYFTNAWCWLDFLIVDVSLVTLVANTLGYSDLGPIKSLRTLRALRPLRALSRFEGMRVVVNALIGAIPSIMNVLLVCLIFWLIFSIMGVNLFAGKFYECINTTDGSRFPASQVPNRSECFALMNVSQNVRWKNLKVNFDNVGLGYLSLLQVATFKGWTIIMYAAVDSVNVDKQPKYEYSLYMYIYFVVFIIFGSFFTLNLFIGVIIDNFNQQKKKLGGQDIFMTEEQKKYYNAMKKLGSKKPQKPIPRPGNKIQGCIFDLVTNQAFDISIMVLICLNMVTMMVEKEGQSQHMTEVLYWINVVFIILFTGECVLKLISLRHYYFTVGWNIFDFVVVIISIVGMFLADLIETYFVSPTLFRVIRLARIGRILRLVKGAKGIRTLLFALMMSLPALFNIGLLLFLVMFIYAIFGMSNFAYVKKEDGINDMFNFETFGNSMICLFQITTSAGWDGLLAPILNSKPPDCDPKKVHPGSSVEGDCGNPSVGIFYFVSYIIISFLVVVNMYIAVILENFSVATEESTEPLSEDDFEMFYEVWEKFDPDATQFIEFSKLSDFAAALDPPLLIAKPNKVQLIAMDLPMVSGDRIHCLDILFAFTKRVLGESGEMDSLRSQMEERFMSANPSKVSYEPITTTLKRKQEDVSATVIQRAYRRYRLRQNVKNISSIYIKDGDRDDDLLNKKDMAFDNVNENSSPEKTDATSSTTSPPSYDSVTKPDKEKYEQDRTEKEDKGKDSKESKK

As to `Cc1cc(C(=O)NS(C)(=O)=O)c(F)cc1-c1cnc(N2CCC[C@@H]2c2ccccc2C(F)(F)F)c(Cl)c1` [Example 659, 4-(5-chloro-6-((2R)-2-(2-(trifluoromethyl)phenyl)-1-pyrrolidinyl)-3-pyridinyl)-2-fluoro-5-methyl-N-(methylsulfonyl)benzamide, 4-(5-chloro-6-((2S)-2-(2-(trifluoromethyl)phenyl)-1-pyrrolidinyl)-3-pyridinyl)-2-fluoro-5-methyl-N-(methylsulfonyl)benzamide], the IC50 amounted to 107 nM.

Compound `COc1cc(C(=O)NS(C)(=O)=O)ccc1-c1cnc(Oc2cc(F)ccc2F)c(Cl)c1` [Example 363, 4-(5-chloro-6-(2,5-difluorophenoxy)-3-pyridinyl)-3-methoxy-N-(methylsulfonyl)benzamide] displayed an IC50 of 100 nM.

`COc1cc(C(=O)NS(C)(=O)=O)ccc1-c1cnc(Oc2ccc(F)cc2C)c(Cl)c1` [Example 361, 4-(5-chloro-6-(4-fluoro-2-methylphenoxy)-3-pyridinyl)-3-methoxy-N-(methylsulfonyl)benzamide] yielded an IC50 of 96.6 nM.

`Cc1cc(Cl)cc(Cl)c1Oc1ncc(-c2cc(F)c(C(=O)NS(C)(=O)=O)cc2F)cc1C#N` [Example 787, 4-(5-cyano-6-(2,4-dichloro-6-methylphenoxy)pyridin-3-yl)-2,5-difluoro-N-(methylsulfonyl)benzamide] returned an IC50 (in-vitro Nav 1.7 PX data) of 78.9 nM. That is a double-digit nanomolar value.

In the case of `COc1cc(C(=O)NS(C)(=O)=O)ccc1-c1cnc(Oc2ccc(Cl)cc2F)c(Cl)c1` [Example 376, 4-(5-chloro-6-(4-chloro-2-fluorophenoxy)-3-pyridinyl)-3-methoxy-N-(methylsulfonyl)benzamide], half-maximal inhibition (IC50) was put at 60.3 nM. This lies in the double-digit nanomolar range.

`COc1cc(C(=O)NS(C)(=O)=O)c(F)cc1-c1cnc(O[C@@H](C)Cc2ccccc2)c(Cl)c1` [Example 758, 4-(5-chloro-6-((1S)-1-methyl-2-phenylethoxy)-3-pyridinyl)-2-fluoro-5-methoxy-N-(methylsulfonyl)benzamide] registered an IC50 (in-vitro Nav 1.7 PX data) of 83.8 nM.

`Cc1c(Cl)cccc1Oc1ncc(-c2cc(F)c(C(=O)NS(C)(=O)=O)cc2OC(F)F)cc1Cl` [Example 780, 4-(5-chloro-6-(3-chloro-2-methylphenoxy)-3-pyridinyl)-5-(difluoromethoxy)-2-fluoro-N-(methylsulfonyl)benzamide] gave an IC50 (in-vitro Nav 1.7 PX data) of 44.5 nM.

As to `COc1cccc(CSc2ncc(-c3cc(F)c(C(=O)NS(C)(=O)=O)cc3C)cc2Cl)c1` [Example 818, 4-(5-Chloro-6-((3-Methoxybenzyl)Thio)-Pyridin-3-yl)-2-Fluoro-5-Methyl-N-(Methylsulfonyl)Benzamide], the IC50 (in-vitro Nav 1.7 PX data) was 169 nM.

`CC(C)C1CCCN1c1ncc(-c2ccc(C(=O)NS(C)(=O)=O)cc2OC(F)F)cc1Cl` (racemic) [compound 833, 4-(5-Chloro-6-(2-Isopropylpyrrolidin-1-yl)Pyridin-3-yl)-3-(Difluoromethoxy)-N-(Methylsulfonyl)Benzamide]: the IC50 (in-vitro Nav 1.7 PX data) came out at 72.1 nM.

In turn, `CS(=O)(=O)NC(=O)c1cc(OC(F)F)c(-c2cnc(OC3CCC3)c(Cl)c2)cc1F` [Example 781, 4-(5-chloro-6-(cyclobutyloxy)-3-pyridinyl)-5-(difluoromethoxy)-2-fluoro-N-(methylsulfonyl)benzamide] showed an IC50 (in-vitro Nav 1.7 PX data) of 145 nM.

Take `CS(=O)(=O)NC(=O)c1cc(OC(F)F)c(-c2cnc(Oc3c(F)ccc(F)c3F)c(Cl)c2)cc1F` [Example 785, 4-(5-chloro-6-(2,3,6-trifluorophenoxy)-3-pyridinyl)-5-(difluoromethoxy)-2-fluoro-N-(methylsulfonyl)benzamide]: the IC50 (in-vitro Nav 1.7 PX data) worked out at 73.3 nM.

`COc1cc(C(=O)NS(C)(=O)=O)ccc1-c1cnc(Oc2ccnc(OC)c2Cl)c(Cl)c1` [Example 832, 4-(5-chloro-6-((3-chloro-2-methoxy-4-pyridinyl)oxy)-3-pyridinyl)-3-methoxy-N-(methylsulfonyl)benzamide] showed an IC50 (in-vitro Nav 1.7 PX data) of 92.3 nM.

`COc1cc(C(=O)NS(C)(=O)=O)ccc1-c1cnc(N2CCC[C@H]2C(C)C)c(Cl)c1` [Example 355, 4-(5-chloro-6-((2S)-2-(1-methylethyl)-1-pyrrolidinyl)-3-pyridinyl)-3-methoxy-N-(methylsulfonyl)benzamide] returned an IC50 of 87.7 nM.

Compound `COc1cc(C(=O)NS(C)(=O)=O)ccc1-c1cnc(Cc2ccc(Cl)c(Cl)c2)c(Cl)c1` [Example 793, 4-(5-chloro-6-(3,4-dichlorobenzyl)pyridin-3-yl)-3-methoxy-N-(methylsulfonyl)benzamide] gave an IC50 (in-vitro Nav 1.7 PX data) of 50.4 nM.

Compound `CCc1ccc(C)cc1Oc1ncc(-c2cc(F)c(C(=O)NS(C)(=O)=O)cc2C)cc1Cl` [Example 680, 4-(5-chloro-6-(2-ethyl-5-methylphenoxy)-3-pyridinyl)-2-fluoro-5-methyl-N-(methylsulfonyl)benzamide] yielded an IC50 of 66.3 nM.

`CS(=O)(=O)NC(=O)c1ccc(-c2cnc(Oc3cc(Cl)cc(Cl)c3)c(Cl)c2)c(Cl)c1` [Example 777, 3-chloro-4-(5-chloro-6-(3,5-dichlorophenoxy)-3-pyridinyl)-N-(methylsulfonyl)benzamide]: under “in-vitro Nav 1.7 PX data”, inhibition was half-maximal at 40 nM (IC50).

The compound `COc1cc(C(=O)NS(C)(=O)=O)ccc1-c1cnc(Oc2cc(C)c(Cl)c(C)c2)c(Cl)c1` [Example 364, 4-(5-chloro-6-(4-chloro-3,5-dimethylphenoxy)-3-pyridinyl)-3-methoxy-N-(methylsulfonyl)benzamide] registered an IC50 of 64.3 nM.

Under “in-vitro Nav 1.7 PX data”, `CS(=O)(=O)NC(=O)c1cc(C2CC2)c(-c2cnc(OC3CCC3)c(Cl)c2)cc1F` [Example 802, 4-(5-chloro-6-cyclobutoxypyridin-3-yl)-5-cyclopropyl-2-fluoro-N-(methylsulfonyl)benzamide] returned a 50% inhibitory concentration (IC50) of 136 nM.

Compound `COc1cc(C(=O)NS(C)(=O)=O)ccc1-c1cnc(Oc2c(C)cc(Cl)cc2Cl)c(Cl)c1` [Example 578, 4-(5-Chloro-6-(2,4-Dichloro-6-Methylphenoxy)-Pyridin-3-yl)-3-Methoxy-N-(Methylsulfonyl)Benzamide] displayed a concentration for half-maximal inhibition (IC50) of 29.6 nM.

As for `Cc1cc(C(=O)NS(C)(=O)=O)c(F)cc1-c1cnc(O[C@@H](C)c2cccc3ccccc23)c(Cl)c1` [Example 682, 4-(5-chloro-6-((1S)-1-(1-naphthalenyl)ethoxy)-3-pyridinyl)-2-fluoro-5-methyl-N-(methylsulfonyl)benzamide], the IC50 stood at 55.1 nM.

Compound `COc1cc(C(=O)NS(C)(=O)=O)c(F)cc1-c1cnc(Oc2cccc(Cl)c2)c(Cl)c1` [Example 765, 4-(5-chloro-6-(3-chlorophenoxy)-3-pyridinyl)-2-fluoro-5-methoxy-N-(methylsulfonyl)benzamide] showed an IC50 (in-vitro Nav 1.7 PX data) of 84.9 nM. This counts as double-digit nanomolar.

`Cc1ccc(Cl)c(Oc2ncc(-c3ccc(C(=O)NS(C)(=O)=O)cc3OC3COC3)cc2Cl)c1` [Example 423, 4-(5-chloro-6-(2-chloro-5-methylphenoxy)-3-pyridinyl)-N-(methylsulfonyl)-3-(3-oxetanyloxy)benzamide]: inhibition was half-maximal at 38.6 nM (IC50).

For the setting “in-vitro Nav 1.7 PX data”, `COc1cc(C(=O)NS(C)(=O)=O)c(F)cc1-c1cnc(Oc2ccc(F)c(C)c2)c(Cl)c1` [Example 754, 4-(5-chloro-6-(4-fluoro-3-methylphenoxy)-3-pyridinyl)-2-fluoro-5-methoxy-N-(methylsulfonyl)benzamide] yielded an IC50 of 92.2 nM.

In the case of `COc1cc(C(=O)NS(C)(=O)=O)ccc1-c1cnc(Oc2ccc(C)c(Cl)c2)c(C#N)c1` [Example 829, 4-(6-(3-chloro-4-methylphenoxy)-5-cyano-3-pyridinyl)-3-methoxy-N-(methylsulfonyl)benzamide], under “in-vitro Nav 1.7 PX data”, the IC50 came out at 50.5 nM.
